Test results published in ChEMBL document CHEMBL3860065, “Synthesis and biological evaluation of azole-diphenylpyrimidine derivatives (AzDPPYs) as potent T790M mutant form of epidermal growth factor receptor inhibitors” (Bioorg Med Chem, 2016).

Tests used:
[1] = biological target: Epidermal growth factor receptor (Homo sapiens, UniProt P00533); assay type: ADME, cell-based, Sf9
Description: Inhibition of human recombinant N-terminal GST-tagged wild type EGFR cytoplasmic domain (695 end residues) autophosphorylation expressed in baculovirus infected Sf9 insect cells by ADP-Glo luminescence assay

[2] = biological target: Epidermal growth factor receptor (Homo sapiens, UniProt P00533, L858R/T790M); assay: biochemical; assay type: cell-based, Sf9
cells = assay type: functional, cell-based; conditions: Homo sapiens, NCI-H1975, 48 h
[3] = Antiproliferative activity against wild type human A431 cells after 48 hrs by MTT assay; assay type: functional, cell-based; conditions: A-431, 48 h
[4] = Antiproliferative activity against human A549 cells harboring K-ras mutation after 48 hrs by MTT assay; assay type: functional, cell-based; conditions: A549, 48 h
[5] = Antiproliferative activity against NHBE cells after 48 hrs by MTT assay; assay type: ADME, cell-based; conditions: Homo sapiens
[6] = human
[7] = system: Epidermal growth factor receptor (Homo sapiens), P00533 [L858R,T790M]; assay: Potency index, ratio of rociletinib IC50 to compound IC50 for human recombinant N-terminal GST-tagged EGFR T790M/L858R double mutant cytoplasmic domain (695 end residues) autophosphorylation expressed in baculovirus infected Sf9 insect cells
NCI-H1975 [8] = assay: Potency index, ratio of gefitinib IC50 to compound IC50 against human NCI-H1975 cells harboring L858R/T790M double mutant; assay type: functional
NCI-H1975 [9] = assay: Induction of apoptosis in human NCI-H1975 cells harboring L858R/T790M double mutant assessed as viable cells at 50 nM after 48 hrs by annexin V-FITC/PI staining based flow cytometric analysis (reference value: 94.2%); assay type: functional; conditions: NCI-H1975, 48 h, read-out: Activity
NCI-H1975 [10] = assay: Induction of apoptosis in human NCI-H1975 cells harboring L858R/T790M double mutant assessed as early apoptotic cells at 50 nM after 48 hrs by annexin V-FITC/PI staining based flow cytometric analysis (reference value: 2%); assay type: functional
NCI-H1975 [11] = assay: Induction of apoptosis in human NCI-H1975 cells harboring L858R/T790M double mutant assessed as late apoptotic cells at 50 nM after 48 hrs by annexin V-FITC/PI staining based flow cytometric analysis (reference value: 3.4%); assay type: functional
NCI-H1975 [12] = assay: Induction of apoptosis in human NCI-H1975 cells harboring L858R/T790M double mutant assessed as necrotic cells at 50 nM after 48 hrs by annexin V-FITC/PI staining based flow cytometric analysis (reference value: 0.4%); assay type: functional
NCI-H1975 [13] = assay: Induction of apoptosis in human NCI-H1975 cells harboring L858R/T790M double mutant assessed as viable cells at 200 nM after 48 hrs by annexin V-FITC/PI staining based flow cytometric analysis (reference value: 94.2%); assay type: functional; conditions: NCI-H1975, 48 h, read-out: Activity
NCI-H1975 [14] = assay: Induction of apoptosis in human NCI-H1975 cells harboring L858R/T790M double mutant assessed as early apoptotic cells at 200 nM after 48 hrs by annexin V-FITC/PI staining based flow cytometric analysis (reference value: 2%); assay type: functional
NCI-H1975 [15] = assay: Induction of apoptosis in human NCI-H1975 cells harboring L858R/T790M double mutant assessed as late apoptotic cells at 200 nM after 48 hrs by annexin V-FITC/PI staining based flow cytometric analysis (reference value: 3.4%); assay type: functional
NCI-H1975 [16] = assay: Induction of apoptosis in human NCI-H1975 cells harboring L858R/T790M double mutant assessed as necrotic cells at 200 nM after 48 hrs by annexin V-FITC/PI staining based flow cytometric analysis (reference value: 0.4%); assay type: functional
NCI-H1975 [17] = assay: Induction of apoptosis in human NCI-H1975 cells harboring L858R/T790M double mutant assessed as viable cells at 500 nM after 48 hrs by annexin V-FITC/PI staining based flow cytometric analysis (reference value: 94.2%); assay type: functional; conditions: NCI-H1975, 48 h, read-out: Activity
NCI-H1975 [18] = assay: Induction of apoptosis in human NCI-H1975 cells harboring L858R/T790M double mutant assessed as early apoptotic cells at 500 nM after 48 hrs by annexin V-FITC/PI staining based flow cytometric analysis (reference value: 2%); assay type: functional
NCI-H1975 [19] = assay: Induction of apoptosis in human NCI-H1975 cells harboring L858R/T790M double mutant assessed as late apoptotic cells at 500 nM after 48 hrs by annexin V-FITC/PI staining based flow cytometric analysis (reference value: 3.4%); assay type: functional
NCI-H1975 [20] = assay: Induction of apoptosis in human NCI-H1975 cells harboring L858R/T790M double mutant assessed as necrotic cells at 500 nM after 48 hrs by annexin V-FITC/PI staining based flow cytometric analysis (reference value: 0.4%); assay type: functional
NCI-H1975 [21] = assay: Induction of apoptosis in human NCI-H1975 cells harboring L858R/T790M double mutant after 48 hrs by annexin V-FITC/PI staining based flow cytometric analysis; assay type: functional, cell-based

SMILES | IC50 [1] [nM] | IC50 [2] [nM] | IC50 (cells) [nM] | IC50 [3] [nM] | IC50 [4] [nM] | IC50 [5] [nM] | IC50 [6] [nM] | further results
C=CC(=O)Nc1cccc(Nc2nc(Nc3ccc(OCCn4cncn4)cc3)ncc2Cl)c1 | > 1000 | 103 | 2370 | 5950 | 10900 | > 40000 | > 9.67 | 
C=CC(=O)Nc1cccc(Nc2nc(Nc3ccc(OCCn4ccnc4)cc3)ncc2Cl)c1 | > 1000 | 106 | 391 | 1340 | 8440 | 39200 | > 9.43 | 
C=CC(=O)Nc1cccc(Nc2nc(Nc3ccc(NC(=O)Cn4ccnc4)cc3)ncc2[N+](=O)[O-])c1 |  |  | 11500 | 16200 | > 40000 | > 40000 | > 8.43 | 
C=CC(=O)Nc1cccc(Nc2nc(Nc3ccc(OCCn4ccnc4)cc3)ncc2F)c1 | > 1000 | 9.1 | 1810 | 2480 | 8370 | 40000 | > 110 | 
C=CC(=O)Nc1cccc(Nc2nc(Nc3ccc(Cn4ccnc4)cc3)ncc2F)c1 | 987 | 9 | 1720 | 152 | 3560 | > 40000 | 110 | 
C=CC(=O)Nc1cccc(Nc2nc(Nc3ccc(N4CCN(C(C)=O)CC4)cc3OC)ncc2C(F)(F)F)c1 [ROCILETINIB] |  |  | 137 | 1290 | 6500 | > 40000 | 21.4 | 
C=CC(=O)Nc1cccc(Nc2nc(Nc3ccc(Cn4ccnc4)cc3)ncc2Cl)c1 | 1000 | 3.3 | 118 | 733 | 2730 | > 40000 | 299 | Ratio IC50 [7]: 8; Ratio IC50 (NCI-H1975 [8]): 10; viability at 0.05 µM (NCI-H1975 [9]): 81%; Activity (NCI-H1975 [10]): 16.3%; Activity (NCI-H1975 [11]): 2.6%; Activity (NCI-H1975 [12]): 0.1%; viability at 0.2 µM (NCI-H1975 [13]): 71.3%; Activity (NCI-H1975 [14]): 24.3%; Activity (NCI-H1975 [15]): 4.2%; Activity (NCI-H1975 [16]): 0.1%; viability at 0.5 µM (NCI-H1975 [17]): 39.6%; Activity (NCI-H1975 [18]): 56.7%; Activity (NCI-H1975 [19]): 3.7%; Activity (NCI-H1975 [20]): 0.1%; Activity (NCI-H1975 [21]): Dose-dependent effect
C=CC(=O)Nc1cccc(Nc2nc(Nc3ccc(OCCCn4ccnc4)cc3)ncc2[N+](=O)[O-])c1 |  |  | 8320 | 6460 | 27400 | 39200 | > 24.6 | 
C=CC(=O)Nc1cccc(Nc2nc(Nc3ccc(Cn4ccnc4)cc3OC)ncc2Cl)c1 | 506 | 109 | 932 | 6780 | 14300 | > 40000 | 4.64 | 
C=CC(=O)Nc1cccc(Nc2nc(Nc3ccc(-n4ccnc4)cc3)ncc2[N+](=O)[O-])c1 | > 1000 | 98.2 | 12600 | 12400 | > 40000 | > 40000 | > 10.2 | 
